Test systems include HL-60; SN12C; CAKI-1; SK-MEL-5; MDA-MB-231; SNB-75; RPMI-8226; UACC-257; NCI/ADR-RES; HCT-116; SK-MEL-28; SW-620; SK-OV-3; Malme-3M; UACC-62; SR; OVCAR-5; HT-29; M14; A498.
Common to all, as to test: inhibition of tumour cell growth, NCI panel, 48 h

SMILES strings stand for the structures.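 Where inhibition never reached the appropriate level, the endpoint shown equals the highest concentration tested. Otherwise, values were interpolated linearly from a five-concentration, 48-hour dose response in 96-well plates. Abbreviation: GI50, concentration required for 50% inhibition of growth.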 Activity calls are given as the source filed them. Cut-off read from the data, not from the text of the source: active = GI50 up to about 1.1 µM and inactive = higher.

Turning to `O=c1sc(Nc2ccc3ccccc3c2Cl)nc2ccccc12`, the GI50 in the experiment on HL-60 was 26.5 µM (inactive); with SN12C, > 100 µM (inactive); in the experiment with CAKI-1 it was 35.9 µM (inactive); with SK-MEL-5 it was > 100 µM (inactive); with MDA-MB-231, > 100 µM (inactive); with SNB-75 it was 49.3 µM (inactive). The GI50 with RPMI-8226, with UACC-257, with NCI/ADR-RES, with HCT-116, in the experiment on SK-MEL-28 and in the experiment with SW-620 was > 100 µM (inactive) each time. Also, the GI50 was > 100 µM (inactive) in the experiment with SK-OV-3; > 100 µM (inactive) in the experiment with Malme-3M; > 100 µM (inactive) with UACC-62; 7.08 µM (inactive) with SR; > 100 µM (inactive) with OVCAR-5; > 100 µM (inactive) with HT-29.
In the case of `CN(C)CN1C(=O)/C(=N\n2c(S)nnc2-c2ccncc2)c2ccccc21`, the GI50 was 11.7 µM (inactive) in the experiment with HL-60; 35.2 µM (inactive) in the experiment on SN12C; 69.3 µM (inactive) in the experiment on CAKI-1; 39.4 µM (inactive) in the experiment on SK-MEL-5; > 100 µM (inactive) with MDA-MB-231; 38.5 µM (inactive) in the experiment with SNB-75. For the same molecule, the GI50 in the experiment with M14 was 24.8 µM (inactive); in the experiment on UACC-257, 15.5 µM (inactive); in the experiment on NCI/ADR-RES it was 41.9 µM (inactive); in the experiment with HCT-116, 34 µM (inactive); with SK-MEL-28, 57.1 µM (inactive); in the experiment with SW-620 it was 18.8 µM (inactive). In addition, the GI50 with SK-OV-3 is 31.7 µM (inactive); with Malme-3M, > 100 µM (inactive); in the experiment on UACC-62, 42.4 µM (inactive); in the experiment with A498, > 100 µM (inactive); with OVCAR-5, > 100 µM (inactive); with HT-29 it was 22.2 µM (inactive).
For `O=C(CCC(=O)OCC1OC(O)(CC2OC(CO)C(O)C(O)C2O)C(O)C1O)OCc1ccccc1` (stereo not drawn), the GI50 in the experiment with HL-60, with SN12C, with CAKI-1, in the experiment with SK-MEL-5, in the experiment on MDA-MB-231 and in the experiment with SNB-75 was > 100 µM (inactive) throughout. The GI50 with M14, with UACC-257, in the experiment with NCI/ADR-RES, in the experiment with HCT-116, in the experiment on SK-MEL-28 and in the experiment on SW-620 was > 100 µM (inactive) throughout. The GI50 in the experiment on SK-OV-3, in the experiment with Malme-3M, with UACC-62, in the experiment with A498, in the experiment with OVCAR-5 and in the experiment with HT-29 was > 100 µM (inactive) in each case.
Turning to `CC(C)=CC(O)C(C(O)CCC1(C)OCCO1)S(=O)(=O)c1ccccc1` (stereo not drawn), the GI50 in the experiment with SN12C, with CAKI-1, in the experiment on MDA-MB-231, with SNB-75, in the experiment with M14 and in the experiment on RPMI-8226 was > 100 µM (inactive) in each case. Moreover, the GI50 with UACC-257, in the experiment with NCI/ADR-RES, in the experiment with HCT-116, in the experiment with SK-MEL-28, in the experiment on SW-620 and with SK-OV-3 was > 100 µM (inactive) each time. In addition, the GI50 with Malme-3M, with A498 and with OVCAR-5 was > 100 µM (inactive) each time.
For the molecule `CC(C)C(=O)Nc1cc(C(F)(F)F)ccc1[N+](=O)[O-]`, the GI50 with HL-60 was 94 µM (inactive); with SN12C, > 100 µM (inactive); with CAKI-1, > 100 µM (inactive); with SK-MEL-5, > 100 µM (inactive); in the experiment with MDA-MB-231, > 100 µM (inactive); in the experiment on M14, > 100 µM (inactive). Moreover, the GI50 is 72.8 µM (inactive) in the experiment on RPMI-8226; > 100 µM (inactive) in the experiment with UACC-257; > 100 µM (inactive) in the experiment with NCI/ADR-RES; > 100 µM (inactive) in the experiment with HCT-116; > 100 µM (inactive) in the experiment with SK-MEL-28; > 100 µM (inactive) in the experiment on SW-620. For the same molecule, the GI50 in the experiment on SK-OV-3 was > 100 µM (inactive); in the experiment with Malme-3M, 68.5 µM (inactive); in the experiment on UACC-62, > 100 µM (inactive); in the experiment with A498 it was > 100 µM (inactive); in the experiment on OVCAR-5 it was > 100 µM (inactive); in the experiment with HT-29 it was > 100 µM (inactive).
Take `O=C1OC(=O)c2c1cc1cc3c(cc1c2-c1ccc2c(c1)OCO2)OCO3`: the GI50 in the experiment with HL-60, in the experiment with SN12C, in the experiment with CAKI-1, in the experiment on SK-MEL-5, in the experiment on MDA-MB-231 and in the experiment on SNB-75 was > 100 µM (inactive) each time. In addition, the GI50 with M14, with RPMI-8226, in the experiment with UACC-257, with NCI/ADR-RES, with HCT-116 and in the experiment on SK-MEL-28 was > 100 µM (inactive) in each case. Also, the GI50 in the experiment on SW-620, with Malme-3M, with UACC-62, in the experiment on A498, with OVCAR-5 and in the experiment on HT-29 was > 100 µM (inactive) throughout.
On to `COC(=O)c1cc2c3c(cc(N(C)C)c2[nH]1)N(C(=O)c1cc2cc(OC)c(OC)c(OC)c2[nH]1)CC3CCl` (stereo not drawn), for which the GI50 in the experiment on SN12C is 0.0114 µM (active); in the experiment with CAKI-1, < 0.0025 µM (active); in the experiment on SK-MEL-5, 0.00333 µM (active); with MDA-MB-231 it was 0.00419 µM (active); in the experiment with SNB-75, 0.0042 µM (active); in the experiment on M14, 0.00294 µM (active). The GI50 in the experiment on RPMI-8226 is 0.00432 µM (active); with UACC-257, 0.00476 µM (active); with NCI/ADR-RES, 0.00392 µM (active); with HCT-116, < 0.0025 µM (active); with SK-MEL-28, 0.00641 µM (active); in the experiment with SW-620, < 0.0025 µM (active). For the same molecule, the GI50 in the experiment with SK-OV-3 was 0.00738 µM (active); in the experiment with Malme-3M, 0.00463 µM (active); in the experiment with UACC-62, 0.00558 µM (active); with A498, 0.00443 µM (active); with OVCAR-5, 0.00776 µM (active); in the experiment with HT-29, 0.25 µM (active).
Turning to `CCOC(=O)C(NC(=O)c1cccc(Cl)c1)(Nc1ccc(S(=O)(=O)Nc2cc(C)on2)cc1)C(F)(F)F` (stereo not drawn), the GI50 in the experiment with HL-60, with SN12C, with CAKI-1, with SK-MEL-5, with MDA-MB-231 and with SNB-75 was > 100 µM (inactive) each time. The GI50 with M14, in the experiment on RPMI-8226, with UACC-257, in the experiment with NCI/ADR-RES, in the experiment with HCT-116 and in the experiment on SK-MEL-28 was > 100 µM (inactive) throughout. For the same molecule, the GI50 in the experiment on SW-620, with SK-OV-3, in the experiment on Malme-3M, with A498, with OVCAR-5 and with HT-29 was > 100 µM (inactive) in each case.
Consider `COc1ccc(-c2nc(-c3cnccn3)n(Cc3ccccc3)n2)cc1`, for which the GI50 was > 100 µM (inactive) in the experiment with HL-60; > 100 µM (inactive) with SN12C; > 100 µM (inactive) in the experiment with SK-MEL-5; > 100 µM (inactive) with MDA-MB-231; 47.9 µM (inactive) with SNB-75; > 100 µM (inactive) in the experiment with M14. For the same molecule, the GI50 with RPMI-8226, in the experiment with UACC-257, in the experiment with NCI/ADR-RES, with HCT-116, in the experiment with SK-MEL-28 and in the experiment with SW-620 was > 100 µM (inactive) each time. Also, the GI50 with SK-OV-3, in the experiment on UACC-62, in the experiment with SR, in the experiment with OVCAR-5 and with HT-29 was > 100 µM (inactive) in each case.
Take `COC(=O)C1OC2(CCCC3CC32)O[C@H]1C(=O)OC` (stereo partly drawn): the GI50 with HL-60, in the experiment on SN12C, with CAKI-1, in the experiment with MDA-MB-231, in the experiment on SNB-75 and in the experiment on M14 was > 100 µM (inactive) each time. Moreover, the GI50 with RPMI-8226, with UACC-257, in the experiment on NCI/ADR-RES, with HCT-116, with SK-MEL-28 and in the experiment with SW-620 was > 100 µM (inactive) in each case. In addition, the GI50 in the experiment with SK-OV-3, with Malme-3M, in the experiment on UACC-62, in the experiment with SR, in the experiment with OVCAR-5 and with HT-29 was > 100 µM (inactive) each time.
As for `CCOc1cc(C=O)ccc1O` [ETHYL VANILLIN], the GI50 with HL-60 is > 100 µM (inactive); with SN12C, > 100 µM (inactive); in the experiment on CAKI-1, > 100 µM (inactive); with SK-MEL-5 it was > 100 µM (inactive); with MDA-MB-231 it was > 100 µM (inactive); in the experiment on SNB-75, 95.1 µM (inactive). For the same molecule, the GI50 in the experiment on M14, in the experiment on RPMI-8226, in the experiment with UACC-257, with NCI/ADR-RES, in the experiment on HCT-116 and with SK-MEL-28 was > 100 µM (inactive) throughout. Further, the GI50 with SW-620 was > 100 µM (inactive); with Malme-3M it was > 100 µM (inactive); in the experiment with SR, 76 µM (inactive); in the experiment on OVCAR-5, > 100 µM (inactive); in the experiment on HT-29 it was > 100 µM (inactive).

Source of the values: ChEMBL document CHEMBL1201862, “PubChem BioAssay data set” (2004).
